# Measured values taken from patent US9073855B2, “BCL-2 selective apoptosis-inducing agents for the treatment of cancer and immune diseases” (AbbVie Inc., priority 2008, dated 2015).
# Legend:
# [1] = molecular target: GST-Bcl-2 (Homo sapiens, UniProt P10415); experiment: TR-FRET binding assay, GST-Bcl-2 with F-Bak peptide probe; conditions: TR-FRET Binding Affinity, GST-Bcl-2, F-Bak peptide probe
# Outline: (§1)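 Compounds were serially diluted in DMSO from a 50 μM starting solution (2× the starting concentration; 10% DMSO). Plates were incubated for 3 h at room temperature, and TR-FRET was read with 340/35 nm excitation and emission at 520/525 nm (F-Bak) and 495/510 nm (Tb antibody). Ki values were calculated using Wang's competitive-binding equation.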
# [2] = molecular target: GST-Bcl-XL (Homo sapiens, UniProt Q07817); experiment: TR-FRET binding assay, GST-Bcl-XL with F-Bak peptide probe; conditions: TR-FRET Binding Affinity, GST-Bcl-XL, F-Bak peptide probe
# Outline: as §1
# [3] = system: FL5.12/Bcl-2 cells; experiment: FL5.12/Bcl-2 cell viability assay under IL-3 withdrawal (CellTitre Glo); type: cell-based, murine; conditions: Mus musculus, IL-3 withdrawn 48 hrs, then 24 hrs with compound
# Outline: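 Murine IL-3-dependent FL5.12 cells stably overexpressing Bcl-2 were deprived of IL-3 (WEHI-3B conditioned medium omitted) for 48 hrs, then exposed to various compound concentrations for a further 24 hrs at 37° C, 5% CO2. Viability was read by CellTitre Glo luminescence.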
# Chain of GST-Bcl-2 (P10415 whole entry): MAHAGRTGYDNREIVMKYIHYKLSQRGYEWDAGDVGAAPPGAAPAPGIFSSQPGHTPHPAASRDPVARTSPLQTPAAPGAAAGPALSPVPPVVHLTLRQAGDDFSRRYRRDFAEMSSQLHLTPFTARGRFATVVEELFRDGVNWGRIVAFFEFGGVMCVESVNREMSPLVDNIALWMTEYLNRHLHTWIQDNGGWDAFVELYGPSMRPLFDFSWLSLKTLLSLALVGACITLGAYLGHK
# Chain of GST-Bcl-XL (Q07817 whole entry): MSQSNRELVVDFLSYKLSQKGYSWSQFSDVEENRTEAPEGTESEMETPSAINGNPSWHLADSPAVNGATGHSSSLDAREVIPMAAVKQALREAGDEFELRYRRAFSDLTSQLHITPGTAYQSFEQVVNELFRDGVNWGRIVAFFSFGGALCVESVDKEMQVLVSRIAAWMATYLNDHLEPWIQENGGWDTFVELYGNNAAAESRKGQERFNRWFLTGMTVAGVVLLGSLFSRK
SMILES,Ki [1] [nM],Ki [2] [nM],EC50 [3] [nM]
"CN1CCC(Oc2ccc(S(=O)(=O)NC(=O)c3ccc(N4CCN(CC5=C(c6ccc(Cl)cc6)CC(C)(C)CC5)CC4)cc3Oc3ccc4[nH]ccc4c3)cc2[N+](=O)[O-])CC1 [Example 353, 4-(4-{[2-(4-chlorophenyl)-4,4-dimethylcyclohex-1-en-1-yl]methyl}piperazin-1-yl)-2-(1H-indol-5-yloxy)-N-({4-[(1-methylpiperidin-4-yl)oxy]-3-nitrophenyl}sulfonyl)benzamide]",0.292,> 660,58.3
"COCCN1CCC(Nc2ccc(S(=O)(=O)NC(=O)c3ccc(N4CCN(CC5=C(c6ccc(Cl)cc6)CC(C)(C)CC5)CC4)cc3Oc3ccc4[nH]ccc4c3)cc2[N+](=O)[O-])CC1 [Example 189, 4-(4-{[2-(4-chlorophenyl)-4,4-dimethylcyclohex-1-en-1-yl]methyl}piperazin-1-yl)-2-(1H-indol-5-yloxy)-N-[(4-{[1-(2-methoxyethyl)piperidin-4-yl]amino}-3-nitrophenyl)sulfonyl]benzamide]",0.144,51.7,14.9
"CN1CCN(Nc2ccc(S(=O)(=O)NC(=O)c3ccc(N4CCN(CC5=C(c6ccc(Cl)cc6)CC(C)(C)CC5)CC4)cc3Oc3ccc4[nH]ccc4c3)cc2S(=O)(=O)C(F)(F)F)CC1 [Example 220, 4-(4-{[2-(4-chlorophenyl)-4,4-dimethylcyclohex-1-en-1-yl]methyl}piperazin-1-yl)-2-(1H-indol-5-yloxy)-N-({4-[(4-methylpiperazin-1-yl)amino]-3-[(trifluoromethyl)sulfonyl]phenyl}sulfonyl)benzamide]",0.192,31.4,24
"CN1CCN(Nc2ccc(S(=O)(=O)NC(=O)c3ccc(N4CCN(CC5=C(c6ccc(Cl)cc6)CC(C)(C)CC5)CC4)cc3Oc3cccc4[nH]ccc34)cc2S(=O)(=O)C(F)(F)F)CC1 [Example 215, 4-(4-{[2-(4-chlorophenyl)-4,4-dimethylcyclohex-1-en-1-yl]methyl}piperazin-1-yl)-2-(1H-indol-4-yloxy)-N-({4-[(4-methylpiperazin-1-yl)amino]-3-[(trifluoromethyl)sulfonyl]phenyl}sulfonyl)benzamide]",0.503,60.8,116
"CC1(C)CCC(CN2CCN(c3ccc(C(=O)NS(=O)(=O)c4cnc(NCC5CCOCC5)c(-c5nccs5)c4)c(Oc4cccc5[nH]ccc45)c3)CC2)=C(c2ccc(Cl)cc2)C1 [Example 365, 4-(4-{[2-(4-chlorophenyl)-4,4-dimethylcyclohex-1-en-1-yl]methyl}piperazin-1-yl)-2-(1H-indol-4-yloxy)-N-{[6-[(tetrahydro-2H-pyran-4-ylmethyl)amino]-5-(1,3-thiazol-2-yl)pyridin-3-yl]sulfonyl}benzamide]",1.08,> 660,> 500
"O=C(NS(=O)(=O)c1ccc(NC2CCN(C3CCOCC3)CC2)c([N+](=O)[O-])c1)c1ccc(N2CCN(CC3=C(c4ccc(Cl)cc4)CCC(O)C3)CC2)cc1Oc1ccc2[nH]ccc2c1 (stereo not drawn) [Example 225, 4-(4-{[2-(4-chlorophenyl)-5-hydroxycyclohex-1-en-1-yl]methyl}piperazin-1-yl)-2-(1H-indol-5-yloxy)-N-({3-nitro-4-[(1-tetrahydro-2H-pyran-4-ylpiperidin-4-yl)amino]phenyl}sulfonyl)benzamide]",0.01,3.48,29.9
"CC1(C)CCC(CN2CCN(c3ccc(C(=O)NS(=O)(=O)c4ccc(NN5CCS(=O)(=O)CC5)c([N+](=O)[O-])c4)c(Oc4ccc5[nH]ccc5c4)c3)CC2)=C(c2ccc(Cl)cc2)C1 [Example 362, 4-(4-{[2-(4-chlorophenyl)-4,4-dimethylcyclohex-1-en-1-yl]methyl}piperazin-1-yl)-N-({4-[(1,1-dioxidothiomorpholin-4-yl)amino]-3-nitrophenyl}sulfonyl)-2-(1H-indol-5-yloxy)benzamide]",0.082,290,171
"CC1(C)CCC(CN2CCN(c3ccc(C(=O)NS(=O)(=O)c4ccc(NCC56CC7CC(C5)C(O)[C@H](C7)C6)c([N+](=O)[O-])c4)c(Oc4ccc5[nH]ccc5c4)c3)CC2)=C(c2ccc(Cl)cc2)C1 (stereo partly drawn) [Example 321, 4-(4-{[2-(4-chlorophenyl)-4,4-dimethylcyclohex-1-en-1-yl]methyl}piperazin-1-yl)-N-{[4-({[(3R)-4-hydroxy-1-adamantyl]methyl}amino)-3-nitrophenyl]sulfonyl}-2-(1H-indol-5-yloxy)benzamide]",0.689,> 660,29.1
"CC1(C)CCC(CN2CCN(c3ccc(C(=O)NS(=O)(=O)c4ccc(NCCOC(F)(F)F)c([N+](=O)[O-])c4)c(Oc4cccc5[nH]ccc45)c3)CC2)=C(c2ccc(Cl)cc2)C1 [Example 292, 4-(4-{[2-(4-chlorophenyl)-4,4-dimethylcyclohex-1-en-1-yl]methyl}piperazin-1-yl)-2-(1H-indol-4-yloxy)-N-[(3-nitro-4-{[2-(trifluoromethoxy)ethyl]amino}phenyl)sulfonyl]benzamide]",0.598,> 660,69.2
"O=C(NS(=O)(=O)c1ccc(OCC2CCOCC2)c([N+](=O)[O-])c1)c1ccc(N2CCN(Cc3ccc(C(F)(F)F)cc3-c3ccc(Cl)cc3)CC2)cc1Oc1ccc2[nH]ccc2c1 [Example 340, 4-(4-{[4′-chloro-5-(trifluoromethyl)-1,1′-biphenyl-2-yl]methyl}piperazin-1-yl)-2-(1H-indol-5-yloxy)-N-{[3-nitro-4-(tetrahydro-2H-pyran-4-ylmethoxy)phenyl]sulfonyl}benzamide]",7.59,> 660,> 500
"CC1(C)CCC(CN2CCN(c3ccc(C(=O)NS(=O)(=O)c4ccc(NN5CCOCC5)c([N+](=O)[O-])c4)c(Oc4ccc5[nH]ccc5c4)c3)CC2)=C(c2ccc(Cl)cc2)C1 [Example 260, 4-(4-{[2-(4-chlorophenyl)-4,4-dimethylcyclohex-1-en-1-yl]methyl}piperazin-1-yl)-2-(1H-indol-5-yloxy)-N-{[4-(morpholin-4-ylamino)-3-nitrophenyl]sulfonyl}benzamide]",1.09,> 660,59.4
"CC1(C)CCC(CN2CCN(c3ccc(C(=O)NS(=O)(=O)c4ccc(NCCCN5CCS(=O)(=O)CC5)c([N+](=O)[O-])c4)c(Oc4ccc5[nH]ccc5c4)c3)CC2)=C(c2ccc(Cl)cc2)C1 [Example 266, 4-(4-{[2-(4-chlorophenyl)-4,4-dimethylcyclohex-1-en-1-yl]methyl}piperazin-1-yl)-N-[(4-{[3-(1,1-dioxidothiomorpholin-4-yl)propyl]amino}-3-nitrophenyl)sulfonyl]-2-(1H-indol-5-yloxy)benzamide]",0.183,> 660,11.5
"CC(C1=C(c2ccc(Cl)cc2)CC(C)(C)CC1)N1CCN(c2ccc(C(=O)NS(=O)(=O)c3ccc(NN4CCN(C)CC4)c([N+](=O)[O-])c3)c(Oc3ccc4[nH]ccc4c3)c2)CC1 (stereo not drawn) [Example 254, 4-(4-{1-[2-(4-chlorophenyl)-4,4-dimethylcyclohex-1-en-1-yl]ethyl}piperazin-1-yl)-2-(1H-indol-5-yloxy)-N-({4-[(4-methylpiperazin-1-yl)amino]-3-nitrophenyl}sulfonyl)benzamide]",0.126,53.3,16.9
"CN1CCC(O)(CNc2ccc(S(=O)(=O)NC(=O)c3ccc(N4CCN(CC5=C(c6ccc(Cl)cc6)CC(C)(C)CC5)CC4)cc3Oc3cccc4[nH]ccc34)cc2[N+](=O)[O-])CC1 [Example 186, 4-(4-{[2-(4-chlorophenyl)-4,4-dimethylcyclohex-1-en-1-yl]methyl}piperazin-1-yl)-N-[(4-{[(4-hydroxy-1-methylpiperidin-4-yl)methyl]amino}-3-nitrophenyl)sulfonyl]-2-(1H-indol-4-yloxy)benzamide]",0.01,11.2,20.4
"CC1(C)CCC(CN2CCN(c3ccc(C(=O)NS(=O)(=O)c4ccc(OCCCS(C)(=O)=O)c([N+](=O)[O-])c4)c(Oc4cccc5[nH]ccc45)c3)CC2)=C(c2ccc(Cl)cc2)C1 [Example 316, 4-(4-{[2-(4-chlorophenyl)-4,4-dimethylcyclohex-1-en-1-yl]methyl}piperazin-1-yl)-2-(1H-indol-4-yloxy)-N-({4-[3-(methylsulfonyl)propoxy]-3-nitrophenyl}sulfonyl)benzamide]",0.149,79.5,67.5
"CC1(C)CCC(CN2CCN(c3ccc(C(=O)NS(=O)(=O)c4ccc(NCCC(F)(F)F)c([N+](=O)[O-])c4)c(Oc4cccc5[nH]ccc45)c3)CC2)=C(c2ccc(Cl)cc2)C1 [Example 323, 4-(4-{[2-(4-chlorophenyl)-4,4-dimethylcyclohex-1-en-1-yl]methyl}piperazin-1-yl)-2-(1H-indol-4-yloxy)-N-({3-nitro-4-[(3,3,3-trifluoropropyl)amino]phenyl}sulfonyl)benzamide]",0.949,> 660,92.1
"CC1(C)CCC(CN2CCN(c3ccc(C(=O)NS(=O)(=O)c4cnc(OCC5CCOCC5)c(C#N)c4)c(Oc4ccc5[nH]ccc5c4)c3)CC2)=C(c2ccc(Cl)cc2)C1 [Example 333, 4-(4-{[2-(4-chlorophenyl)-4,4-dimethylcyclohex-1-en-1-yl]methyl}piperazin-1-yl)-N-{[5-cyano-6-(tetrahydro-2H-pyran-4-ylmethoxy)pyridin-3-yl]sulfonyl}-2-(1H-indol-5-yloxy)benzamide]",0.089,> 660,109
